Test results taken from patent publication US20040204340A1, “Polyprolyl inhibitors of cyclophilin” (Guilford Pharmaceuticals, Inc., priority 2003, published 2004).

System: cultured chick sensory neurons from dorsal root ganglia
Assay: Chick dorsal root ganglion cultures and neurite outgrowth
Format: cell-based
Details: 1 mM, 48 h after treatment (FIGS. 4, 5)
Description: Dorsal root ganglia were dissected from chick embryos of ten day gestation. Whole ganglion explants were cultured on thin layer Matrigel-coated 12 well plates with Liebovitz L15 plus high glucose media supplemented with 2 mM glutamine and […], and also containing 10 μM cytosine 9-D arabinofuranoside (Ara C) at 37° C. in an environment containing 5% CO2. Twenty-four hours later, the DRGs were treated with various concentrations of nerve growth factor, immunophilin ligands or combinations of NFG plus drugs. Forty-eight hours after drug treatment, the ganglia were visualized under phase contrast or Hoffman Modulation contrast with a Zeiss Axiovert inverted microscope. Photomicrographs of the explants were made, and neurite outgrowth was quantitated. Neurites longer than the DRG diameter were counted as positive, with total number of neurites quantitated per each experimental condition. Three to four DRGs are cultured per well, and each treatment was performed in duplicate.

Substance	Promotion of neurite outgrowth (neurotrophic effects)
Ac-Pro-Ala-Pro-Ala-NH2 (Ac-PAPA-NH2)	potent neurotrophic effects
Ac-Pro-Gly-Pro-Phe-NH2 (Ac-PGPF-NH2)	powerful neurotrophic effects
